Data set [1] deals with T1, DcpS (m7GpppX diphosphatase) (Homo sapiens, UniProt Q96C86).
T1 sequence (Q96C86 whole entry): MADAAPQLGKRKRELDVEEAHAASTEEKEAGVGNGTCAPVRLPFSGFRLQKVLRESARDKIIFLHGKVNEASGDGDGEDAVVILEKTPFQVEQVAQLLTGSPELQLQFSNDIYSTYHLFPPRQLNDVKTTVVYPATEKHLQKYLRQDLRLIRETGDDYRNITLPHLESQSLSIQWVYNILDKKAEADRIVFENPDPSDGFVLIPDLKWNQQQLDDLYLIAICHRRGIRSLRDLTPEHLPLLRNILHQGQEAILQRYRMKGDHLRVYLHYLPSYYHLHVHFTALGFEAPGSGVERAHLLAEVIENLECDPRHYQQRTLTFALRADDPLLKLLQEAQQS
Nature of the data set: Stability of the compound assessed as human DcpS-mediated compound hydrolysis at 40 uM after 180 mins by HPLC analysis. Format: ADME. The following applies: human DcpS enzyme (m7GpppX diphosphatase), read-out: Drug degradation.

Data set [2] addresses Eukaryotic translation initiation factor 4E (Homo sapiens) (UniProt P06730).
Description: Binding affinity to eIF4E (unknown origin) by fluorescence quenching assay
The nature of data set [3]: Chemical stability of the compound in […] buffer at pH 8.5. The class given is physicochemical.
Data set [4] is described as follows: Chemical stability of the compound in glycine buffer at pH 2.2 after 16 hrs. To be noted: pH 2.2, 16 h. The class given is physicochemical.
Data set [5] can be described thus: Chemical stability of the compound in aqueous buffer at pH 4 to 8.5. The class given is physicochemical.
Data set [6] in a line: Chemical stability of the compound in glycine buffer at pH 2.2. Format: physicochemical.
In another data set the target is T2, m7GpppX diphosphatase (Homo sapiens, UniProt Q96C86).
T2 sequence (Q96C86 whole entry): T1 sequence (Q96C86 whole entry)
The data set is described as follows: Stability of the compound assessed as human DcpS-mediated compound hydrolysis at 40 uM after 10 to 180 mins by HPLC analysis. Format: ADME.

Data set [7] has as its target T3, Eukaryotic translation initiation factor 4E (Oryctolagus cuniculus, UniProt P29338). Nature of the data set: Inhibition of eIF4E-mediated translation in flexi rabbit reticulocyte lysate using luciferase mRNA treated simultaneously with mRNA by luminescence based luciferase assay.
The target in data set [8] is T3, Eukaryotic translation initiation factor 4E. The data set is described as follows: Inhibition of eIF4E-mediated translation in flexi rabbit reticulocyte lysate using luciferase mRNA preincubated for 60 mins before mRNA addition by luminescence based luciferase assay.
The target in data set [9] is Eukaryotic translation initiation factor 4E (Oryctolagus cuniculus) (UniProt P29338). Nature of the data set: Inhibition of eIF4E-mediated translation in flexi rabbit reticulocyte lysate using luciferase mRNA by luminescence based luciferase assay relative to m7GpppG.
The subject of data set [10] is Serum. The data set is described as follows: Stability of the compound in 5% fetal bovine serum at 50 uM up to 240 mins by RP-HPLC analysis. The class given is ADME, cell-free, Bos taurus. The following applies: cattle, 4 h.
Data set [11] concerns Serum. The data set is described as follows: Stability of the compound in 10% fetal bovine serum at 50 uM up to 240 mins by RP-HPLC analysis. The class given is ADME, cell-free, Bos taurus. The following applies: cattle, 4 h.
A short description of data set [12]: Chemical stability of the compound in phosphate buffer at pH 7 assessed as compound decomposition. The class given is physicochemical. To be noted: read-out: Drug degradation.

This is an account of results in ChEMBL document CHEMBL3603763, “Phosphate-modified analogues of m(7)GTP and m(7)Gppppm(7)G-Synthesis and biochemical properties” (Bioorg Med Chem, 2015).

SMILES strings stand for the structures.

Sequence of Eukaryotic translation initiation factor 4E (Homo sapiens) (P06730 whole entry): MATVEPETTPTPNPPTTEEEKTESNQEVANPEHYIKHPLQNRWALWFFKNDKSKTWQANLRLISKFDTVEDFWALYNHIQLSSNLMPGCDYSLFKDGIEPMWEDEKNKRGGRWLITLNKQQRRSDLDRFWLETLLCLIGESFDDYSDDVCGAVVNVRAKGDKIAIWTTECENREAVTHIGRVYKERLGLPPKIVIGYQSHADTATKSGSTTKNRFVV
Sequence of Eukaryotic translation initiation factor 4E (Oryctolagus cuniculus) (P29338 whole entry): as the sequence (P06730 whole entry) above, with T16P, T17A, E174D counted along it
T3 sequence (P29338 whole entry): as the sequence (P06730 whole entry) above, with T16P, T17A, E174D counted along it

Take `B[P@@](=O)(OC[C@H]1O[C@@H](n2c[n+](C)c3c(O)nc(N)nc32)[C@H](O)[C@@H]1O)OP(=O)([O-])OP(=O)([O-])O[P@](B)(=O)OC[C@H]1O[C@@H](n2c[n+](C)c3c(O)nc(N)nc32)[C@H](O)[C@@H]1O`: the metabolised at 3 h, 40 µM in data set [1] worked out at 81%.

In data set [2], `C[n+]1cn([C@@H]2O[C@H](COP(=O)(O)OP(=O)([O-])OP(=O)(O)OC[C@H]3O[C@@H](n4cnc5c(=O)[nH]c(N)nc54)[C@H](O)[C@@H]3O)[C@@H](O)[C@H]2O)c2nc(N)nc(O)c21` had a Ka of 9.4 µM⁻¹.

For the molecule `C[n+]1cn([C@@H]2O[C@H](COP(=O)(O)OP(=O)(O)NP(=O)(O)O)[C@@H](O)[C@H]2O)c2nc(N)nc([O-])c21`, the Stability entry in [3] and in [4] was “Unstable” in each case.

Consider `[BH3-]P(=O)(OC[C@H]1O[C@@H](n2c[n+](C)c3c(O)nc(N)nc32)[C@H](O)[C@@H]1O)OP(=O)(O)OP(=O)(O)O` (stereo not given in full), for which the Stability entry in data set [5] is “Stable”; in data set [6] it was “Unstable”.

What is called IC50 is the concentration needed to halve the response being measured. On to `B[P@](=O)(OC[C@H]1O[C@@H](n2c[n+](C)c3c(O)nc(N)nc32)[C@H](O)[C@@H]1O)OP(=O)([O-])OP(=O)(O)O.N.N.N.N`, for which, on m7GpppX diphosphatase, the Stability result is recorded as “Unstable”. In addition, the half-maximal inhibitory concentration (IC50) in data set [7] was 4120 nM; in data set [8], 3260 nM. Moreover, the Ka in data set [2] turned out to be 136 µM⁻¹.

In the case of `B[P@@](=O)(OC[C@H]1O[C@@H](n2c[n+](C)c3c(O)nc(N)nc32)[C@H](O)[C@@H]1O)OP(=O)([O-])OP(=O)(O)O.N.N.N.N`, on m7GpppX diphosphatase, the Stability entry was “Unstable”. The metabolised at 3 h, 40 µM in data set [1] was 19%. Moreover, the half-maximal inhibitory concentration (IC50) was 1190 nM in data set [7] and 1280 nM in [8]. Further, the Ka in [2] came to 148 µM⁻¹.

For the molecule `C[n+]1cn([C@@H]2O[C@H](COP(=O)(O)OP(=O)([O-])OP(=O)(O)OC[C@H]3O[C@@H](n4cnc5c(=O)[nH]c(N)nc54)[C@H](O)[C@@H]3O)[C@@H](O)[C@H]2O)c2nc(N)[nH]c(=O)c21`, the Stability entry on m7GpppX diphosphatase is on record as “Stable”. The same molecule had a half-maximal inhibitory concentration (IC50) in data set [8] of 25000 nM.

In the case of `[BH3-]P(=O)(OC[C@H]1O[C@@H](n2c[n+](C)c3c(O)nc(N)nc32)[C@H](O)[C@@H]1O)OP(=O)(O)CP(=O)(O)O` (stereo not given in full), the Stability result in [5] is listed as “Stable”; in data set [6], “Unstable”.

Consider `C[n+]1cn([C@@H]2O[C@H](CO[P@@](=O)(S)OP(=O)([O-])CP(=O)([O-])O[P@](=O)(S)OC[C@H]3O[C@@H](n4c[n+](C)c5c(O)nc(N)nc54)[C@H](O)[C@@H]3O)[C@@H](O)[C@H]2O)c2nc(N)nc(O)c21`, for which the Ratio in [9] worked out at 1.12.

`B[P@](=O)(OC[C@H]1O[C@@H](n2c[n+](C)c3c(O)nc(N)nc32)[C@H](O)[C@@H]1O)OP(=O)([O-])CP(=O)(O)O.N.N.N.N`: the Stability result at m7GpppX diphosphatase is given as “Unstable”. Also, the half-maximal inhibitory concentration (IC50) in data set [7] worked out at 4470 nM; in data set [8], 3220 nM. This molecule also returned a Ka in [2] of 18.5 µM⁻¹.

With `B[P@](=O)(OC[C@H]1O[C@@H](n2c[n+](C)c3c(O)nc(N)nc32)[C@H](O)[C@@H]1O)OP(=O)([O-])CP(=O)([O-])O[P@](B)(=O)OC[C@H]1O[C@@H](n2c[n+](C)c3c(O)nc(N)nc32)[C@H](O)[C@@H]1O`, in data set [9], the Ratio amounted to 1.18.

For `C[n+]1cn([C@@H]2O[C@H](COP(=O)([O-])OP(=O)(O)OP(=O)(O)O)[C@@H](O)[C@H]2O)c2nc(N)[nH]c(=O)c21`, the Stability result at m7GpppX diphosphatase is listed as “Stable”; in the data set with Serum [10] it was “Unstable”; in the data set on Serum [11] it was “Unstable”.

Consider `B[P@](=O)(OC[C@H]1O[C@@H](n2c[n+](C)c3c(O)nc(N)nc32)[C@H](O)[C@@H]1O)OP(=O)([O-])CP(=O)([O-])O[P@@](B)(=O)OC[C@H]1O[C@@H](n2c[n+](C)c3c(O)nc(N)nc32)[C@H](O)[C@@H]1O`, for which the Ratio in data set [9] stood at 0.85.

For the molecule `C[n+]1cn([C@@H]2O[C@H](CO[P@](=O)(S)OP(=O)([O-])CP(=O)([O-])O[P@@](=O)(S)OC[C@H]3O[C@@H](n4c[n+](C)c5c(O)nc(N)nc54)[C@H](O)[C@@H]3O)[C@@H](O)[C@H]2O)c2nc(N)nc(O)c21`, the Ratio in data set [9] is 1.86.

As to `C[n+]1cn([C@@H]2O[C@H](CO[P@](=O)(S)OP(=O)([O-])CP(=O)(O)O)[C@@H](O)[C@H]2O)c2nc(N)nc(O)c21.N.N.N.N`, the Stability result on m7GpppX diphosphatase is on record as “Unstable”; in the data set with Serum [10], “Stable”; with Serum [11], “Stable”. In addition, the results for the IC50 in data set [7] and in data set [8] were 1490 nM and 1240 nM, respectively. This molecule yielded a Ka in data set [2] of 85.9 µM⁻¹.

In the case of `C[n+]1cn([C@@H]2O[C@H](CO[P@@](=O)(S)OP(=O)([O-])OP(=O)(O)O)[C@@H](O)[C@H]2O)c2nc(N)nc(O)c21.N.N.N.N`, the Stability result is “Unstable” at m7GpppX diphosphatase, “Stable” in the data set with Serum [10] and “Stable” in the data set on Serum [11]. The concentration for half-maximal inhibition (IC50) is 1440 nM in data set [7] and 1300 nM in [8]. Moreover, the Ka in [2] is 190 µM⁻¹.

For the molecule `CO[C@H]1[C@@H](O)[C@H](n2c[n+](C)c3c(O)nc(N)nc32)O[C@@H]1COP(=O)(O)OP(=O)([O-])OP(=O)(O)OC[C@H]1O[C@@H](n2cnc3c(=O)[nH]c(N)nc32)[C@H](O)[C@@H]1O`, the Ratio in data set [9] is 1.5.

For `[BH3-]P(=O)(OC[C@H]1O[C@@H](n2c[n+](C)c3c(O)nc(N)nc32)[C@H](O)[C@@H]1O)OP(=O)(O)NP(=O)(O)O` (stereo not given in full), the Stability entry in data set [3] and in [4] was “Unstable” throughout. Moreover, the degraded in data set [12] was more than 50%.

Take `B[P@@](=O)(OC[C@H]1O[C@@H](n2c[n+](C)c3c(O)nc(N)nc32)[C@H](O)[C@@H]1O)OP(=O)([O-])CP(=O)([O-])O[P@](B)(=O)OC[C@H]1O[C@@H](n2c[n+](C)c3c(O)nc(N)nc32)[C@H](O)[C@@H]1O`: the Ratio in data set [9] came to 0.99.

For `C[n+]1cn([C@@H]2O[C@H](CO[P@](=O)(S)OP(=O)([O-])OP(=O)(O)O)[C@@H](O)[C@H]2O)c2nc(N)nc(O)c21.N.N.N.N`, the Stability result on m7GpppX diphosphatase was “Unstable”; in the data set with Serum [10], “Stable”; in the data set on Serum [11], “Stable”. Moreover, the Ka in data set [2] turned out to be 371 µM⁻¹.

On to `C[n+]1cn([C@@H]2O[C@H](CO[P@](=O)(S)OP(=O)([O-])CP(=O)([O-])O[P@](=O)(S)OC[C@H]3O[C@@H](n4c[n+](C)c5c(O)nc(N)nc54)[C@H](O)[C@@H]3O)[C@@H](O)[C@H]2O)c2nc(N)nc(O)c21`, for which the Ratio in [9] was 1.56.

In the case of `C[n+]1cn([C@@H]2O[C@H](CO[P@@](=O)(S)OP(=O)([O-])CP(=O)(O)O)[C@@H](O)[C@H]2O)c2nc(N)nc(O)c21.N.N.N.N`, the Stability entry at m7GpppX diphosphatase, in the data set with Serum [10] and with Serum [11] was “Unstable” throughout. For the same molecule, the IC50 in data set [7] was 3680 nM; in data set [8], 2610 nM. For the same molecule, the Ka in data set [2] stood at 41.8 µM⁻¹.

On to `C[n+]1cn([C@@H]2O[C@H](COP(=O)(O)OP(=O)(O)OP(=O)(O)OP(=O)(O)OC[C@H]3O[C@@H](n4c[n+](C)c5c([O-])nc(N)nc54)[C@H](O)[C@@H]3O)[C@@H](O)[C@H]2O)c2nc(N)nc([O-])c21`, for which the Ratio in data set [9] was 3.14.

In the case of `B[P@@](=O)(OC[C@H]1O[C@@H](n2c[n+](C)c3c(O)nc(N)nc32)[C@H](O)[C@@H]1O)OP(=O)([O-])CP(=O)(O)O.N.N.N.N`, the Stability entry at m7GpppX diphosphatase is given as “Unstable”. The concentration for half-maximal inhibition (IC50) in data set [7] was 2550 nM; in [8], 3260 nM. In data set [2], the Ka was 36.1 µM⁻¹.

Regarding `C[n+]1cn([C@@H]2O[C@H](COP(=O)(O)OP(=O)(O)OP(=O)(O)OC[C@H]3O[C@@H](n4c[n+](C)c5c([O-])nc(N)nc54)[C@H](O)[C@@H]3O)[C@@H](O)[C@H]2O)c2nc(N)nc([O-])c21`, the Ratio in data set [9] turned out to be 2.66.

On to `C[n+]1cn([C@@H]2O[C@H](COP(=O)(O)OP(=O)(O)CP(=O)(O)O)[C@@H](O)[C@H]2O)c2nc(N)nc([O-])c21`, for which, in [2], the Ka was found to be 19.5 µM⁻¹.
